Experimental data reported in patent US20240299562A1 (priority 2020, published 2024).
Like-named read-outs stand apart in the source and are kept apart here. Where a SMILES comes first, the peptide text is derived from it.

Legend:
[1] = in mice; cited from earlier work
[2] = in dogs; cited from earlier work
[3] = chronic treatment in rats, doses up to 8-fold higher; cited from earlier work
[4] = cited from earlier work
[5] = WST-1 cell viability, normal HME-1 cells; assay type: cell-based, human; settings: human; HME-1 normal cells; 72 hrs, WST-1 (Table 2); read-out: Maximal efficacy, cytotoxicity (%) at 100 μM
Method: (§1) All commercial cell lines were purchased at ATCC (LGC Standards SARL, France). Cells were seeded in 96-well plates according to their optimal seeding density, varying between 5.000 and 10.000 cells/well. After attachment overnight, 10-point serial titrations (1:5) were prepared in their equivalent complete media as recommended by ATCC, starting from the 10 mM stock solutions. For doxorubicin comprising prodrugs dilutions started from 100 μM, while for the parent compound doxorubicin dilutions started at 10 μM. […] Seventy-two hours later, compounds were removed together with the supernatants and cells were washed once with PBS to remove excess drugs.
(§2) The WST-1 assay for cell proliferation and viability (Roche, Switzerland) was performed according to manufacturer's protocol. Absorbances were measured at 4 hrs using a Perkin Elmer Ensight multiplate reader, equipped with Kaleido 2.0 software (Perkin Elmer, USA). Cell viability was expressed as a percentage compared to non-treated cells. Absolute IC50 values were extrapolated from a non-linear fitting following the Sigmoidal-4PL regression method using Graphpad Prism 7.0. Likewise, maximal efficacy was determined as 100% minus the cell viability determined when cells are incubated in the presence of a compound. For instance, if 20% of the cells survive incubation in the presence of a compound, then the maximal efficacy of that compound is 100%-20%=80%.
(§3) Selectivity indices (SI) were defined as the ratio of the concentration of drug required to kill 50% of the cells in normal (control, non-cancer) cells, divided by the concentration required to exert the same efficacy in tumor cells: SI=IC50 (control cell)/IC50 (cancer cell), or SI=^HME-1IC50/cancer IC50.

HME-1 cells = assay: WST-1 cell viability, normal HME-1 cells; assay type: cell-based, human; settings: for IC50: HME-1 normal cells, 72 hrs continuous drug exposure, WST-1 (Table 1), read-out: Absolute IC50
Method: as §1, §2, §3

[6] = test system: U87 MG glioblastoma cells subcutaneously implanted in nude NMRI mice; assay: In vivo activity of PhAc-ALLP-Dox on U87 MG glioblastoma xenograft; design: species or system mouse; settings: 154 mg/kg iv, once per week
Method: The in vivo efficacy of PhAc-ALLP-Dox was tested in a mouse GBM model. U87 MG glioblastoma cells were subcutaneously (SC) implanted in nude NMRI mice. In total, 32 adult (9-10 weeks old) nude female NMRI mice (Janvier, France) were subjected to SC tumor cell grafting in the right flank. In total, 5×10^6 U87 MG cells resuspended in PBS plus Matrigel (1:1) were injected in 200 uL final volume. As soon as the tumors were palpable and reached the volume of 200 mm3 the treatment was started. At day zero, mice were randomly divided into 4 groups, based on the tumor volume, in order to have the following experimental sub-cohorts: • control group receiving the vehicle (PBS pH7.2) with a dose of 5 ml/kg, intravenously (iv), once per week (QW); • PhAc-ALLP-Dox (30 mg/kg iv, QW); • PhAc-ALGP-Dox (154 mg/kg iv, QW); • Dox (5 mg/kg iv, QW).
Treatments were performed once per week for a total of four tail vein administrations/injections (on days 1, 7, 14 and 21). One extra week of observation followed the active treatment phase. During the experiment, tumor volume was measured two times a week and was assessed three-dimensionally with a digital caliper (Mitutoyo, Illinois) using the following formula:
V=4/3π×[(d/2)^2×(D/2)], where d is the minor tumor axis and D is the major tumor axis.

MIA PaCa-2 cells = assay: WST-1 cell viability, MIA PaCa-2 pancreatic cancer cells; assay type: cell-based
Method: as §1, §2, §3

LS 174T cells = assay: WST-1 cell viability, LS 174T colorectal cancer cells; assay type: cell-based
Method: as §1, §2, §3

HCT-116 cells = assay: WST-1 cell viability, HCT-116 colorectal cancer cells; assay type: cell-based
Method: as §1, §2, §3

A-172 cells = assay: WST-1 cell viability, A-172 glioblastoma cells; assay type: cell-based
Method: as §1, §2, §3

U-87 MG cells = assay: WST-1 cell viability, U-87 MG glioblastoma cells; assay type: cell-based
Method: as §1, §2, §3

MDA-MB-231 cells = assay: WST-1 cell viability, MDA-MB-231 triple negative breast cancer cells; assay type: cell-based
Method: as §1, §2, §3

MDA-MB-468 cells = assay: WST-1 cell viability, MDA-MB-468 triple negative breast cancer cells; assay type: cell-based
Method: as §1, §2, §3

DU145 cells = assay: WST-1 cell viability, DU145 prostate cancer cells; assay type: cell-based
Method: as §1, §2, §3

A2780 cells = assay: WST-1 cell viability, A2780 ovarian cancer cells; assay type: cell-based
Method: as §1, §2, §3

A2780 Cp cells = assay: WST-1 cell viability, A2780 CpR (cisplatin resistant) ovarian cancer cells; assay type: cell-based
Method: as §1, §2, §3

A2058 cells = assay: WST-1 cell viability, A2058 melanoma cells; assay type: cell-based
Method: as §1, §2, §3

NCI-1299 cells = assay: WST-1 cell viability, NCI-H1299 lung cancer cells; assay type: cell-based
Method: as §1, §2, §3

NCI-H292 cells = assay: WST-1 cell viability, NCI-H292 lung cancer cells; assay type: cell-based
Method: as §1, §2, §3

cancer cell lines = assay: In vitro potency and selectivity across a variety of cancer indications (WST-1); assay type: cell-based; settings: 72 hrs
Method: as §1
as §2, with “For instance, if 20% of the cells survive incubation in the presence of a compound, then the maximal efficacy of that compound is 100%-20%=80%.” left out

## COc1cccc2c1C(=O)c1c(O)c3c(c(O)c1C2=O)CC(O)(C(=O)CO)CC3OC1CC(NC(=O)C(CC(C)C)NC(=O)C(C)NC(=O)C(CC(C)C)NC(=O)CCNC(=O)CCC(=O)O)C(O)C(C)O1 [Suc-βALAL-dox, N-succinyl-beta-alanyl-L-leucyl-L-alanyl-L-leucyl-doxorubicin]
[1]
  Times less toxic compared with unconjugated doxorubicin: about 5 times
[2]
  Times less toxic compared with unconjugated doxorubicin: 3 times
[3]
  Cardiotoxicity compared with Dox: significantly less cardiotoxic
[4]; phase I clinical study (Delord et al., unpublished)
  Clinical benefit, share of evaluable patients: 59%
[4]; phase I clinical study, even at very high cumulative doses (2750 mg/m^2)
  Cardiac adverse events: No drug-related, severe cardiac adverse events were reported
[4]; phase I clinical study
  Dose at which myelotoxicity occurred compared with free doxorubicin: three times higher doses

## COc1cccc2c1C(=O)c1c(O)c3c(c(O)c1C2=O)C[C@@](O)(C(=O)CO)C[C@@H]3O[C@H]1C[C@H](NC(=O)[C@@H]2CCCN2C(=O)CNC(=O)[C@H](CC(C)C)NC(=O)[C@H](C)NC(=O)CP(=O)(O)O)[C@H](O)[C@H](C)O1 [PhAc-ALGP-Dox, reference compound] (HELM PEPTIDE1{[O=C(CP(=O)(O)O)[*:2]].A.L.G.P.[COc1cccc2c1C(=O)c1c(O)c3c(c(O)c1C2=O)C[C@@](O)(C(=O)CO)C[C@@H]3O[C@H]1C[C@H](N[*:1])[C@H](O)[C@H](C)O1]}$$$$V2.0)
[5]
  cytotoxicity at 72 h, 100 µM: 31.2%
HME-1 cells
  IC50: > 100 µM
[6]
  Tumor growth: significantly reduced tumor growth

## COc1cccc2c1C(=O)c1c(O)c3c(c(O)c1C2=O)C[C@@](O)(C(=O)CO)C[C@@H]3O[C@H]1C[C@H](NC(=O)[C@@H]2CCCN2C(=O)[C@H](CCCCN)NC(=O)[C@@H]2CCCN2C(=O)[C@H](C)NC(=O)CP(=O)(O)O)[C@H](O)[C@H](C)O1 [PhAc-APKP-Dox] (HELM PEPTIDE1{[O=C(CP(=O)(O)O)[*:2]].A.P.K.P.[COc1cccc2c1C(=O)c1c(O)c3c(c(O)c1C2=O)C[C@@](O)(C(=O)CO)C[C@@H]3O[C@H]1C[C@H](N[*:1])[C@H](O)[C@H](C)O1]}$$$$V2.0)
[5]
  cytotoxicity at 72 h, 100 µM: 81.5%
HME-1 cells; HME-1 normal cells against themselves (Table 3)
  SI = HME-1 IC50/cancer IC50: 1.00
HME-1 cells
  IC50: 18.1 µM
MIA PaCa-2 cells; MIA PaCa-2 (PaC) vs HME-1 (Table 3)
  SI = HME-1 IC50/cancer IC50: 0.40
MIA PaCa-2 cells; MIA PaCa-2 (PaC), 72 hrs, WST-1 (Table 1), read-out: Absolute IC50
  IC50: 45.7 µM
MIA PaCa-2 cells; MIA PaCa-2 (PaC), 72 hrs, WST-1 (Table 2)
  Maximal efficacy, cytotoxicity (%) at 100 μM: 77.65%
LS 174T cells; LS 174T (CrC) vs HME-1 (Table 3)
  SI = HME-1 IC50/cancer IC50: 1.23
LS 174T cells; LS 174T (CrC), 72 hrs, WST-1 (Table 1), read-out: Absolute IC50
  IC50: 14.7 µM
LS 174T cells; LS 174T (CrC), 72 hrs, WST-1 (Table 2)
  Maximal efficacy, cytotoxicity (%) at 100 μM: 53.72%
HCT-116 cells; HCT-116 (CrC) vs HME-1 (Table 3)
  SI = HME-1 IC50/cancer IC50: 1.47
HCT-116 cells; HCT-116 (CrC), 72 hrs, WST-1 (Table 1), read-out: Absolute IC50
  IC50: 12.3 µM
HCT-116 cells; HCT-116 (CrC), 72 hrs, WST-1 (Table 2)
  Maximal efficacy, cytotoxicity (%) at 100 μM: 81.05%
A-172 cells; A-172 (GBM) vs HME-1 (Table 3)
  SI = HME-1 IC50/cancer IC50: 0.49
A-172 cells; A-172 (GBM), 72 hrs, WST-1 (Table 1), read-out: Absolute IC50
  IC50: 36.9 µM
A-172 cells; A-172 (GBM), 72 hrs, WST-1 (Table 2)
  Maximal efficacy, cytotoxicity (%) at 100 μM: 91.93%
U-87 MG cells; U-87 MG (GBM) vs HME-1 (Table 3)
  SI = HME-1 IC50/cancer IC50: 1.46
U-87 MG cells; U-87 MG (GBM), 72 hrs, WST-1 (Table 1), read-out: Absolute IC50
  IC50: 12.4 µM
U-87 MG cells; U-87 MG (GBM), 72 hrs, WST-1 (Table 2)
  Maximal efficacy, cytotoxicity (%) at 100 μM: 88.38%
MDA-MB-231 cells; MDA-MB-231 (TNBC) vs HME-1 (Table 3)
  SI = HME-1 IC50/cancer IC50: 8.49
MDA-MB-231 cells; MDA-MB-231 (TNBC), 72 hrs, WST-1 (Table 1), read-out: Absolute IC50
  IC50: 2.13 µM
MDA-MB-231 cells; MDA-MB-231 (TNBC), 72 hrs, WST-1 (Table 2)
  Maximal efficacy, cytotoxicity (%) at 100 μM: 89.12%
MDA-MB-468 cells; MDA-MB-468 (TNBC) vs HME-1 (Table 3)
  SI = HME-1 IC50/cancer IC50: 4.02
MDA-MB-468 cells; MDA-MB-468 (TNBC), 72 hrs, WST-1 (Table 1), read-out: Absolute IC50
  IC50: 4.49 µM
MDA-MB-468 cells; MDA-MB-468 (TNBC), 72 hrs, WST-1 (Table 2)
  Maximal efficacy, cytotoxicity (%) at 100 μM: 91.83%
DU145 cells; DU145 (PrC) vs HME-1 (Table 3)
  SI = HME-1 IC50/cancer IC50: 2.02
DU145 cells; DU145 (PrC), 72 hrs, WST-1 (Table 1), read-out: Absolute IC50
  IC50: 8.93 µM
DU145 cells; DU145 (PrC), 72 hrs, WST-1 (Table 2)
  Maximal efficacy, cytotoxicity (%) at 100 μM: 91.93%
A2780 cells; A2780 (OvC) vs HME-1 (Table 3)
  SI = HME-1 IC50/cancer IC50: 21.13
A2780 cells; A2780 (OvC), 72 hrs, WST-1 (Table 1), read-out: Absolute IC50
  IC50: 0.86 µM
A2780 cells; A2780 (OvC), 72 hrs, WST-1 (Table 2)
  Maximal efficacy, cytotoxicity (%) at 100 μM: 87.34%
A2780 Cp cells; A2780 Cp (OvC) vs HME-1 (Table 3)
  SI = HME-1 IC50/cancer IC50: 1.62
A2780 Cp cells; A2780 Cp (OvC), 72 hrs, WST-1 (Table 2)
  Maximal efficacy, cytotoxicity (%) at 100 μM: 74.61%
A2780 Cp cells; A2780 Cp (OvC, cisplatin resistant), 72 hrs, WST-1 (Table 1), read-out: Absolute IC50
  IC50: 11.2 µM
A2058 cells; A2058 (Melanoma) vs HME-1 (Table 3)
  SI = HME-1 IC50/cancer IC50: 3.69
A2058 cells; A2058 (Melanoma), 72 hrs, WST-1 (Table 1), read-out: Absolute IC50
  IC50: 4.9 µM
A2058 cells; A2058 (Melanoma), 72 hrs, WST-1 (Table 2)
  Maximal efficacy, cytotoxicity (%) at 100 μM: 96.27%
NCI-1299 cells; NCI-1299 (NSCLC) vs HME-1 (Table 3)
  SI = HME-1 IC50/cancer IC50: 1.72
NCI-1299 cells; NCI-1299 (NSCLC), 72 hrs, WST-1 (Table 1), read-out: Absolute IC50
  IC50: 10.5 µM
NCI-1299 cells; NCI-1299 (NSCLC), 72 hrs, WST-1 (Table 2)
  Maximal efficacy, cytotoxicity (%) at 100 μM: 75.52%
NCI-H292 cells; NCI-H292 (NSCLC) vs HME-1 (Table 3)
  SI = HME-1 IC50/cancer IC50: 0.70
NCI-H292 cells; NCI-H292 (NSCLC), 72 hrs, WST-1 (Table 1), read-out: Absolute IC50
  IC50: 25.9 µM
NCI-H292 cells; NCI-H292 (NSCLC), 72 hrs, WST-1 (Table 2)
  Maximal efficacy, cytotoxicity (%) at 100 μM: 63.26%
Cancer cell lines
  Potency range against cancer cells: within the micromolar range
